Assay results: PubChem BioAssay (NCI)
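Briefly, cells in 96-well plates were exposed to five compound concentrations for 48 h, and endpoints were estimated by linear interpolation. At the TGI there is no net growth.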

Key:
Assay in all cases: NCI tumour cell line growth inhibition, 48 h
SF-268 CNS = tested on: SF-268 CNS
HOP-18 NSCLC = tested on: HOP-18 NSCLC
HCT-116 colon = tested on: HCT-116 colon
MOLT-4 leukemia = tested on: MOLT-4 leukemia
SK-MEL-5 melanoma = tested on: SK-MEL-5 melanoma
NCI-H23 lung = tested on: NCI-H23 lung
OVCAR-8 ovarian = tested on: OVCAR-8 ovarian
KM12 colon = tested on: KM12 colon
TK-10 renal = tested on: TK-10 renal
OVCAR-4 ovarian = tested on: OVCAR-4 ovarian
COLO 205 colon = tested on: COLO 205 colon
SN12C renal = tested on: SN12C renal
IGROV1 ovarian = tested on: IGROV1 ovarian
NCI-H226 lung = tested on: NCI-H226 lung
SW-620 colon = tested on: SW-620 colon
RXF-631 renal = tested on: RXF-631 renal
RPMI-8226 leukemia = tested on: RPMI-8226 leukemia
OVCAR-3 ovarian = tested on: OVCAR-3 ovarian
HCC-2998 colon = tested on: HCC-2998 colon
K-562 leukemia = tested on: K-562 leukemia
HOP-92 NSCLC = tested on: HOP-92 NSCLC
MALME-3M melanoma = tested on: MALME-3M melanoma
ACHN renal = tested on: ACHN renal
SNB-78 CNS = tested on: SNB-78 CNS
SR leukemia = tested on: SR leukemia
SK-OV-3 ovarian = tested on: SK-OV-3 ovarian
U251 CNS = tested on: U251 CNS
A498 renal = tested on: A498 renal
NCI-H460 lung = tested on: NCI-H460 lung
UACC-62 melanoma = tested on: UACC-62 melanoma
HCT-15 colon = tested on: HCT-15 colon
KM20L2 colon = tested on: KM20L2 colon
DMS 273 small cell lung = tested on: DMS 273 small cell lung
SNB-75 CNS = tested on: SNB-75 CNS
DLD-1 colon = tested on: DLD-1 colon
HOP-62 NSCLC = tested on: HOP-62 NSCLC
SNB-19 CNS = tested on: SNB-19 CNS
DMS 114 small cell lung = tested on: DMS 114 small cell lung
UO-31 renal = tested on: UO-31 renal
CAKI-1 renal = tested on: CAKI-1 renal
CCRF-CEM leukemia = tested on: CCRF-CEM leukemia
LXFL 529 NSCLC = tested on: LXFL 529 NSCLC
SF-295 CNS = tested on: SF-295 CNS
786-0 renal = tested on: 786-0 renal
EKVX NSCLC = tested on: EKVX NSCLC
A549 NSCLC = tested on: A549 NSCLC
SK-MEL-28 melanoma = tested on: SK-MEL-28 melanoma
SF-539 CNS = tested on: SF-539 CNS
RXF 393 renal = tested on: RXF 393 renal
LOX IMVI melanoma = tested on: LOX IMVI melanoma
M19-MEL melanoma = tested on: M19-MEL melanoma
M14 melanoma = tested on: M14 melanoma
HT29 colon = tested on: HT29 colon
OVCAR-5 ovarian = tested on: OVCAR-5 ovarian
UACC-257 melanoma = tested on: UACC-257 melanoma
XF 498 CNS = tested on: XF 498 CNS

`COC(=O)CCSC(=O)Nc1ccc(N=Nc2ccccc2)cc1` gave a TGI (SF-268 CNS) greater than 100 µM, a TGI (HOP-18 NSCLC) greater than 100 µM and a TGI (HCT-116 colon) greater than 100 µM. For the same compound, the TGI (MOLT-4 leukemia) was greater than 100 µM, the TGI (SK-MEL-5 melanoma) was greater than 100 µM and the TGI (NCI-H23 lung) was 92 µM. It also gave a TGI (OVCAR-8 ovarian) greater than 100 µM, a TGI (KM12 colon) greater than 100 µM and a TGI (TK-10 renal) greater than 100 µM. For the same compound, the TGI (OVCAR-4 ovarian) was greater than 100 µM, the TGI (COLO 205 colon) was 47.7 µM and the TGI (SN12C renal) was greater than 100 µM. The TGI (IGROV1 ovarian) was greater than 100 µM, the TGI (NCI-H226 lung) was greater than 100 µM and the TGI (SW-620 colon) was greater than 100 µM. The TGI (RXF-631 renal) was greater than 100 µM, the TGI (RPMI-8226 leukemia) was greater than 100 µM and the TGI (OVCAR-3 ovarian) was 74.9 µM. The TGI (HCC-2998 colon) was 59 µM, the TGI (K-562 leukemia) was greater than 100 µM and the TGI (HOP-92 NSCLC) was greater than 100 µM. The TGI (MALME-3M melanoma) was greater than 100 µM, the TGI (ACHN renal) was greater than 100 µM and the TGI (SNB-78 CNS) was greater than 100 µM. For the same compound, the TGI (SR leukemia) was greater than 100 µM, the TGI (SK-OV-3 ovarian) was greater than 100 µM and the TGI (U251 CNS) was greater than 100 µM. The TGI (A498 renal) was 62.1 µM, the TGI (NCI-H460 lung) was greater than 100 µM and the TGI (UACC-62 melanoma) was greater than 100 µM. For the same compound, the TGI (HCT-15 colon) was greater than 100 µM, the TGI (KM20L2 colon) was 76.3 µM and the TGI (DMS 273 small cell lung) was greater than 100 µM. It also gave a TGI (SNB-75 CNS) greater than 100 µM, a TGI (DLD-1 colon) greater than 100 µM and a TGI (HOP-62 NSCLC) greater than 100 µM. It also gave a TGI (SNB-19 CNS) greater than 100 µM, a TGI (DMS 114 small cell lung) greater than 100 µM and a TGI (UO-31 renal) greater than 100 µM. For the same compound, the TGI (CAKI-1 renal) was greater than 100 µM, the TGI (CCRF-CEM leukemia) was greater than 100 µM and the TGI (LXFL 529 NSCLC) was greater than 100 µM. The TGI (SF-295 CNS) was greater than 100 µM, the TGI (786-0 renal) was greater than 100 µM and the TGI (EKVX NSCLC) was greater than 100 µM. The TGI (A549 NSCLC) was greater than 100 µM, the TGI (SK-MEL-28 melanoma) was greater than 100 µM and the TGI (SF-539 CNS) was greater than 100 µM. For the same compound, the TGI (RXF 393 renal) was greater than 100 µM, the TGI (LOX IMVI melanoma) was greater than 100 µM and the TGI (M19-MEL melanoma) was greater than 100 µM. It also gave a TGI (M14 melanoma) greater than 100 µM, a TGI (HT29 colon) greater than 100 µM and a TGI (OVCAR-5 ovarian) greater than 100 µM. The TGI (UACC-257 melanoma) was greater than 100 µM and the TGI (XF 498 CNS) was greater than 100 µM.
